In patent US20240350430A1, “GROWTH INHIBITOR OF METASTATIC HUMAN PROSTATE CANCER CELLS” (Watanabe Oyster Laboratory Co., Ltd., priority 2021, published 2024):

What was measured:
Assay type in all cases: cell-based, human
[1] = system: DU-145 cells; assay: Cell invasion, Transwell chambers with Matrigel, DU-145 cells; conditions: DHMBA 1, 10, or 100 μM, 24 hours
Protocol: (§1) The cell invasion activity of the prostate cancer PC-3 and DU-145 cells was measured using Transwell chambers (the catalogue number CLS3464-48EA of Corning, Life Sciences, USA). A chamber was placed in each well of the 24-hole plate. 50 μl of Matrigel (Corning Life Sciences, Cat. No. 356230, USA) was added to the upper surface of the chambers. After drying the gel, 500 μl of a suspension of the PC-3 or DU-145 cells (the cell number of 2.5×10^4/ml, the DMEM not containing FBS) was added to the upper surface of the gel. This cell suspension contained the DHMBA (0, 1, 10, or 100 μM). After the addition of the cell suspension to the chambers, it was incubated for one hour to cause the cells to adhere. 0.75 ml of the culture fluid not containing the FBS and a culture fluid containing 10% of FBS were added to the lower surface of the chambers. The cells on the plate were cultured under 5% of CO2, 95% of air, at 37° C., for 24 hours. […] After the drying, the number of the stained cells was counted by the microscope (Olympus MTV-3, Olympus Corporation, Tokyo, Japan). […]
(§2) The cell invasion activities of the prostate cancer PC-3 and DU-145 cells were measured using the Transwell chambers. […] After the drying, the number of the stained cells was counted by the microscope (Olympus MTV-3, Olympus Corporation, Tokyo, Japan). […]

[2] = system: PC-3 cells; assay: Cell migration scratch assay, PC-3 cells; conditions: DHMBA 1, 10, 100, or 1000 μM, 48 hours
Protocol: The migration of the prostate cancer PC-3 and DU-145 cells was examined using a scratch assay. The PC-3 and DU-145 cells (the cell number of 2×10^5/in 1 ml of a culture fluid per hole using a 24-hole plate) were cultured in a DMEM culture fluid containing 10% of FBS, 1% of P/S, and 1% of fungizone under 5% of CO2, at 37° C., for 48 hours, and a straight line scratch was performed using a pipette tip (200 μl) when the cells reached confluence. Free cells were washed with PBS to be removed, the above-described culture fluid (containing 0.1, 1, 10, 100, or 1000 μM of the DHMBA) was added, and the cells were cultured for 48 hours. After the culture, intervals of cell-free parts were measured.
The PC-3 and DU-145 cells (the cell number of 2× 10^5/1 ml of a culture fluid per hole using a 24-hole plate) were cultured under 5% of CO2, at 37° C., for 48 hours in a DMEM culture fluid containing 10% of FBS, 1% of P/S, and 1% of fungizone, and a straight line scratch was performed using a pipette tip (200 μl) when the cells reached confluence. Free cells were washed with PBS to be removed, the above-described culture fluid (containing 0.1, 1, 10, 100, or 1000 μM of the DHMBA) was added, and the cells were cultured for 48 hours. After the culture, intervals of cell-free parts were measured. […]

[3] = system: PC-3 cells; assay: Cell invasion, Transwell chambers with Matrigel, PC-3 cells; conditions: DHMBA 1, 10, or 100 μM, 24 hours
Protocol: as §1, §2

COc1c(O)cc(CO)cc1O [DHMBA, 3,5-dihydroxy-4-methoxybenzyl alcohol]
significantly inhibited: invasion [1] | migration [2] | invasion [3]
